Patent US20230012172A1, “COMPOSITIONS AND METHODS FOR TREATMENT OF PLATINUM-BASED CHEMOTHERAPEUTIC RESISTANT TUMORS” (The George Washington University, priority 2020, published 2023)

What was measured:
SENP1 [1] = target: T1, SENP1 (Homo sapiens, UniProt Q9P0U3); experiment: In vitro deSUMOylation assay with recombinant His-JAK2 and GST-SENP1; type: biochemical; set-up: made in house; host or cells: E. coli BL21 (DE3) for pET28a-JAK2; conditions: SUMOylated His-JAK2 incubated with GST-SENP1 and compound for 3 hours
T1 sequence (Q9P0U3 1-644): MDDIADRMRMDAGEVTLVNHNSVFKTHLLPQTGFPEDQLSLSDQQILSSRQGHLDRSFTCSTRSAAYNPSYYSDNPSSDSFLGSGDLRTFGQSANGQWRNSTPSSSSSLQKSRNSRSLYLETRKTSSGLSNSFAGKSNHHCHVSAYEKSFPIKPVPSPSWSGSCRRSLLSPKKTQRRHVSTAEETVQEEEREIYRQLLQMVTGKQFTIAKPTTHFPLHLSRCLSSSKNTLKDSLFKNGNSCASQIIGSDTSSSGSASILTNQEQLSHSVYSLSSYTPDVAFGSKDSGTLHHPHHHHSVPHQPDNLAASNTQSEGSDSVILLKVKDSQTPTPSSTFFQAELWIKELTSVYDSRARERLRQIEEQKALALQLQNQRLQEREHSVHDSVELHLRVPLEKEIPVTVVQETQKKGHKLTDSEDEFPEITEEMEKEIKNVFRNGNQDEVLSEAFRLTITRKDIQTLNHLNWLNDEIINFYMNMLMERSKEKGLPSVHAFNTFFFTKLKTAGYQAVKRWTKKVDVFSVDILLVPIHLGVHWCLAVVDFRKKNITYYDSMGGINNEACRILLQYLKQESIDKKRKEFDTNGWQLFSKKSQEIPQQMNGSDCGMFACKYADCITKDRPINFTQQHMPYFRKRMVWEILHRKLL
Experimental: To further determine whether SENP1 can directly deSUMOylate JAK2, in vitro deSUMOylation assays were performed by using purified recombinant His-JAK2 and GST-SENP1 proteins.
In vitro SUMOylation assay. The SUMOylation reactions were performed according to the manufacture's instruction (BML-UW8955-0001; ENZO). Briefly, 200 nM of purified HIS-JAK2 was suspended in reaction buffer (20 μl) containing Mg-ATP, SUMO E1, SUMO E2 and recombinant SUMOs. RanGAP1 (provided in the kit) was used as the substrate for positive control. The reaction was incubated at 37° C. for 60 minutes and terminated by using 20 μl of SDS loading buffer. […] The reactions were then subjected to Western blot to evaluate SUMOylation level.
Protein expression and purification. pET28a-JAK2 and its mutant was transformed in BL21 (DE3) E. coli cells by heat shot method at 42° C. and grown in Luria Broth (LB) at 37° C. E. coli cells were induced with 0.5 mM IPTG to induct protein expression. Cells were harvested by centrifugation at 5,000 g, 4° C. for 15 min and the pellet was resuspended in lysis buffer (20 mM Tris pH 7.9, 500 mM NaCl, 5 mM imidazole, 2 mM DTT and 1× protease inhibitor cocktail). Cells were then sonicated and centrifuged at 14,000 g, 4° C. for 15 min. 1 ml of Ni-NTA was added to the supernatant and incubated at 4° C. with end-to-end mixing for 2 hours and subjected to a column. The Ni-NTA resin was washed with 10 ml wash buffer (20 mM Tris pH 7.9, 250 mM NaCl, 15 mM Imidazole and 0.5 mM DTT) and eluted with 1 ml elution buffer (20 mM Tris pH 7.9, 250 mM NaCl and 1 M imidazole). The elute was then concentrated by using a protein concentrator (Thermo Scientific™ Pierce™) and resuspend in dialysis buffer (50 mM Tris pH 7.9, 50 mM NaCl, 2 mM DTT, and 10% glycerol). The purified protein was stored at −80° C. pGEX-4T1-SENP1 and its mutant were purified using following buffers: lysis buffer (1 mM DTT, and lx protease inhibitor cocktail, 800 mM NaCl, 5 mM EDTA, 50 mM Tris-pH8.0, 0.1% Triton x-100), wash buffer (800 mM NaCl, 5 mM EDTA, 50 mM Tris-pH8.0, 0.1% Triton x-100), elution buffer (40 mM glutathione, 800 mM NaCl, 5 mM EDTA, 50 mM Tris-pH8.0, 0.1% Triton x-100), dialysis buffer (50 mM Tris pH 7.9, 50 mM NaCl, 2 mM DTT, and 10% glycerol).

SKOV3 CR cells = experiment: Cell viability assay (SRB) in SKOV3 CR cells; type: cell-based; conditions: for synergistic effects with cisplatin (combination index): SKOV3 CR cells
Experimental: Cell culture and resistance cell line establishment. IGROV1 cells, U2OS (HTB-96; ATCC), HEK293T (CRL-11268; ATCC) and SKOV3 cells (HTB-77; ATCC) were cultured at 37° C. in DMEM with 10% Fetal Bovine Serum (FBS). PEO1 (10032308; Sigma-Aldrich), PEO4 (10032309; Sigma-Aldrich), PEO14 (10032311; […] Sigma-Aldrich) were cultured at 37° C. in RPMI-1640 with 10% FBS. OV90 (CRL-11732; […] All the cells were cultured at in a humidified incubator with 5% CO2 atmosphere. Cisplatin resistant cell lines, including SKOV3 CR, IGROV1 CR and OV90 CR, were generated using an approach similar to that reported in Zhou et al., (2018) Oncogene 37, 3981-3997, the disclosure of which is incorporated herein in its entirety. Cell viability assay. Cells were seeded at 3,000 cells/well in 96-well plates were treated with drugs, followed by incubation for 48 hours, after which cell viability was detected using Sulforhodamine B (SRB) assay (64). Absorbance at 510 nm was detected using a SpectraMax Reader (Molecular Devices) and analyzed with SoftMax Analysis Software (Molecular Devices). Combinational index (CI) values were calculated using CompuSyn software.

SENP1 [2] = experiment: SENP1 protein and JAK2 SUMOylation in IGROV1 cells treated with cisplatin (Western blot); type: cell-based, human; conditions: time and dose dependent
Experimental: (§1) The SENP1 protein level was increased while JAK2 SUMOylation was decreased correspondingly in IGROV1 cells treated with cisplatin in a time and dose dependent manner (FIGS. 4F and 4G). To further test the SENP1 induction by platinum drugs in vivo, SENP1 protein levels were measured in IGROV1 xenograft tumors using immunohistochemistry (IHC) in implanted immunodeficient nude mice that were treated with carboplatin at 20 mg/kg or 60 mg/kg after tumor was developed.

IGROV1 CR cells = experiment: Cell viability assay (SRB) in IGROV1 CR cells; type: cell-based, human; conditions: for toxicity (cell viability): 150 nM, IGROVI CR cells
Experimental: Cell culture and resistance cell line establishment. IGROV1 cells, U2OS (HTB-96; ATCC), HEK293T (CRL-11268; ATCC) and SKOV3 cells (HTB-77; ATCC) were cultured at 37° C. in DMEM with 10% Fetal Bovine Serum (FBS). PEO1 (10032308; Sigma-Aldrich), PEO4 (10032309; Sigma-Aldrich), PEO14 (10032311; Sigma-Aldrich) and PE023 cells (10032313; Sigma-Aldrich) were cultured at 37° C. in RPMI-1640 with 10% FBS. OV90 (CRL-11732; ATCC) was cultured in medium containing 1:1 MCDB 105 (Sigma) and M199 (Sigma) supplemented with 10% FBS at 37 ° C. All the cells were cultured at in a humidified incubator with 5% CO2 atmosphere. Cisplatin resistant cell lines, including SKOV3 CR, IGROV1 CR and OV90 CR, were generated using an approach similar to that reported in Zhou et al., (2018) Oncogene 37, 3981-3997, the disclosure of which is incorporated herein in its entirety.
Cell viability assay. Cells were seeded at 3,000 cells/well in 96-well plates were treated with drugs, followed by incubation for 48 hours, after which cell viability was detected using Sulforhodamine B (SRB) assay (64). Absorbance at 510 nm was detected using a SpectraMax Reader (Molecular Devices) and analyzed with SoftMax Analysis Software (Molecular Devices). Combinational index (CI) values were calculated using CompuSyn software.

SENP1 [3] = experiment: SENP1 IHC in IGROV1 xenograft tumors of carboplatin-treated mice; type: in vivo, immunodeficient nude mice; conditions: carboplatin 20 mg/kg or 60 mg/kg
Experimental: as §1
Immunohistochemistry. Immunohistochemical (IHC) staining and scoring were performed similar to that previously described n Zhou et al., (2018) Oncogene 37, 3981-3997, the disclosure of which is incorporated herein in its entirety. The quantification of immunohistochemical staining was scored blindly at least by two independent observers.

JAK2 = experiment: Cell-free kinase assay with JAK2 purified from treated cells, recombinant STAT3 substrate; type: biochemical; conditions: JAK2 purified from IGROV1 cells treated with inhibitor
Experimental: Phosphorylation of STAT3 at tyrosine 705 (Y705) by JAK2 is one of the most important and well established cytoplasmic functions of JAK2. To determine whether accumulation of JAK2 in nucleus by depleting SENP1 affected JAK2 cytoplasmic activity, phosphorylated STAT3 (pSTAT3 (Y705)) levels was evaluated in SENP1 depleted IGROV1 cells.
To this end, cell-free kinase assays were performed using JAK2 purified from cells treated with siSENP1 or UAMMC9.

`C[C@@H]1CC[C@]2(C(=O)O)CC[C@]3(C)C(=CC[C@@H]4[C@@]5(C)C[C@@H](O)[C@H](O)C(C)(C)[C@@H]5CC[C@]43C)[C@@H]2[C@]1(C)O` [tormentic acid] was tested, and the “inhibited SENP1 activity in vitro” value (SENP1 [1]) was “inhibited” and the “synergistic effects with cisplatin (combination index)” value (SKOV3 CR cells) was “synergistic effects”.
For `N.N.[Cl][Pt][Cl]` [Cisplatin, cisplatin], the “JAK2 SUMOylation” value (SENP1 [2]) was “decreased”, the SENP1 protein level (SENP1 [2]) was “increased” and the IC50 (IGROV1 CR cells; cisplatin alone or with 150 nM UAMMC, read-out: Cisplatin IC50 with 150 nM of UAMMCs on IGROV1 CR cells) was 14.2 µM. It also gave an IC50 (SKOV3 CR cells; cisplatin alone or with 150 nM UAMMC, read-out: Cisplatin IC4 with 150 nM of UAMMCs on SKOV3 CR cells, IC50) of 12.4 µM.
With `C[C@@H]1CC[C@]2(C(=O)OCCNC(=O)OC(C)(C)C)CC[C@]3(C)C(=CCC4[C@@]5(C)CC[C@H](O)C(C)(C)C5CC[C@]43C)C2[C@H]1C` (stereo partly drawn) [UAMMC3] the “toxicity (cell viability)” value (IGROV1 CR cells) was “higher toxicity”.
In the case of `C[C@@H]1CC[C@]2(C(=O)OCC(=O)NCCO)CC[C@]3(C)C(=CCC4[C@@]5(C)CC[C@H](O)C(C)(C)C5CC[C@]43C)C2[C@H]1C` (stereo partly drawn) [UAMMC5], the “toxicity (cell viability)” value (IGROV1 CR cells) is reported as “higher toxicity”.
For `C[C@@H]1CC[C@]2(C(=O)O)CC[C@]3(C)C(=CC[C@@H]4[C@@]5(C)CC[C@H](O)C(C)(C)[C@@H]5CC[C@]43C)[C@@H]2[C@]1(C)O` [pomolic acid], the “inhibited SENP1 activity in vitro” value (SENP1 [1]) was “inhibited” and the “synergistic effects with cisplatin (combination index)” value (SKOV3 CR cells) was “synergistic effects”.
In the case of `N.N.O=C([O-])C1(C(=O)[O-])CCC1.[Pt+2]` [Carboplatin, carboplatin], the “SENP1 expression in ovarian tumors (IHC)” value (SENP1 [3]) is reported as “significant increase”.
In the case of `CC1(C)CC[C@]2(C(=O)O)[C@H](O)C[C@]3(C)C(=CC[C@@H]4[C@@]5(C)CC[C@H](O)C(C)(C)[C@@H]5CC[C@]43C)[C@H]2C1` [echinocyslic acid], the “synergistic effects with cisplatin (combination index)” value (SKOV3 CR cells) is reported as “synergistic effects”.
For `CC1CCC2(C(=O)NCC(=O)N(C)CCO)CCC3(C)C(=CCC4C5(C)CCC(O)C(C)(C)C5CCC43C)C2C1C` (stereo not drawn) [UAMMC9], the “decrease of the IC50 of cisplatin” value (IGROV1 CR cells; 150 nM UAMMC9, IGROVI CR cells) was 4.19 fold.
With `C[C@H]1[C@H](C)CC[C@]2(C(=O)O)CC[C@]3(C)C(=CC[C@@H]4[C@@]5(C)C[C@@H](O)[C@H](O)C(C)(C)[C@@H]5CC[C@]43C)[C@H]12` [corosolicin acid] the “synergistic effects with cisplatin (combination index)” value (SKOV3 CR cells) was “synergistic effects”.
In the case of `Cc1cnc(Nc2ccc(OCCN3CCCC3)cc2)nc1Nc1cccc(S(=O)(=O)NC(C)(C)C)c1` [TG101348], the “phosphorylation of recombinant substrate STAT3 proteins by purified JAK2” value (JAK2) is reported as “decreased phosphorylation”.
